In patent US7404962B1, “Combination kit used in the treatment of malaria” (Nicholas Piramal India Limited, priority 2000, dated 2008):
Like-named read-outs stand apart in the source and are kept apart here.

Legend:
[1] = literature, cited from earlier work
[2] = literature; cited from earlier work
[3] = system: anti-oxidant defense enzymes; details: literature; cited from earlier work
P. vivax = assay: Clinical evaluation of the combination kit in patients, one year surveillance study; assay type: in vivo, human; details: compound I 25 mg vs primaquine 15 mg, each with chloroquine
Method: The efficacy of the combination kit of the present invention, containing compound I (25 mg) was clinically evaluated and compared with primaquine (15 mg) used in combination with chloroquine in a group of patients over a one year surveillance study.

[4] = Methemoglobin toxicity study in healthy human volunteers; assay type: in vivo
Method: 3-[1-[[4-[(6-methoxy-8-quinolinyl)amino]pentyl]amino]ethylidene]-dihydro-2(3H)furanone (I) was evaluated vis-à-vis primaquine for toxicity related to methemoglobin formation in human.
The methemoglobin toxicity of compound I was evaluated via-à-vis that of primaquine in normal human volunteers.

P. cynomolgi = assay: Radical curative activity against P. cynomolgi in rhesus monkeys; assay type: in vivo
Method: The radical curative anti-malarial activity and toxicity of the compound I was evaluated and compared with that caused by primaquine.
Combination regimen of chloroquine and 3-[1-[[4-[(6-methoxy-8-quinolinyl)amino]pentyl]amino]ethylidene]-dihydro-2(3H)furanone(I) tested against P. cynomolgi in rhesus monkeys.
The therapeutic effect of the combination regimen consisting of chloroquine and 3-[1-[[4-[(6-methoxy-8-quinolinyl)amino]pentyl]amino]-ethylidene]-4,5-dihydro-2(3H)furanone (I) was tested against P. cynomolgi in rhesus monkeys. 3-[1-[[4-[(6-methoxy-8-quinolinyl)-amino]pentyl]amino]ethylidene]-dihydro-2(3H)furanone(I) was administered in the dose level of 4.00 mg/kg (to 3 monkeys), 3.00 mg/kg (to 3 monkeys), 2.50 mg/kg (to 4 monkeys), 2.00 mg/kg (to 3 monkeys) and 1.25 mg/kg (to 9 monkeys) for 7 days. Chloroquine was administered as a companion drug at 5 mg/kg (base) dose. Minimum curative dose of compound I was found 1.25 mg/kg in 9 monkeys.

## COc1cc(NC(C)CCCN/C(C)=C2/CCOC2=O)c2ncccc2c1 (stereo not shown) [compound I, 3-[1-[[4-[(6-methoxy-8-quinolinyl)amino]pentyl]amino]ethylidene]-dihydro-2(3H)-furanone]
[1]
  anti-relapse activity versus primaquine: comparable to Primaquine
[1]; listed as compound of formula (I)
  anti-relapse activity versus primaquine: comparable to primaquine
[2]
  methemoglobin formation / toxicity versus primaquine: less methemoglobin formation
  toxicity versus primaquine: safer and less toxic
[3]
  effect on anti-oxidant defense enzymes versus primaquine: less effect on anti-oxidant defense enzymes than primaquine
P. vivax
  radical curative activity versus primaquine: as effective as primaquine
[4]; human, in vivo
  methemoglobin level before dosing: 2.29%
P. cynomolgi; 2.0, 2.50, 3.00 and 4.00 mg/kg (base) for 7 days, chloroquine 5 mg/kg (base)
  curative effect at doses higher than 1.25 mg/kg: curative
P. cynomolgi; 9 rhesus monkeys, 7 days, chloroquine companion drug at 5 mg/kg (base)
  Minimum curative dose: 1.25 mg/kg
P. cynomolgi; all monkeys observed over a period of 100 days
  blood smears after stopping the treatment: remained negative
P. cynomolgi; rhesus monkeys, 7 days, dose range 1.25 mg/kb to 4 mg/kg
  curative: 100%
P. cynomolgi; rhesus monkeys, up to 100 days after stopping the treatment
  relapse after stopping the treatment: no relapse observed

## COc1cc(NC(C)CCCN)c2ncccc2c1 (stereo not shown) [primaquine, reference compound]
[4]; healthy human volunteers, 15 mg daily for 7 days
  methemoglobin level after dosing: 16.23%
[4]; healthy human volunteers, starting level
  methemoglobin level before dosing: 3.97%

## COc1cc(C)c2c(Oc3cccc(C(F)(F)F)c3)c(OC)cc(NC(C)CCCN)c2n1 (stereo not shown) [tafenoquine, reference compound]
[1]
  anti-relapse activity versus primaquine: more effective than primaquine
[2]
  methemoglobin formation / toxicity versus primaquine: almost three times more than that of primaquine
